Source: the supplement of paper PMC10331698
± gives the standard deviation of the averaged measurements.

Columns and labels:
Test in all cases: level (log10 ratio to DMSO vehicle control); higher = higher biomarker level / cell amount than vehicle control
Details in all cases: in DMSO
[1] = compound: C=C(C)C(=O)OCC(F)(F)C(F)(F)C(F)(F)F [2,2,3,3,4,4,4-Heptafluorobutyl methacrylate]
Experimental: (§1)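 BioMAP Diversity Plus panel of 12 human primary cell co-culture systems (3C, 4H, LPS, SAg, BT, BF4T, BE3C, CASM3C, HDF3CGF, KF3CT, MyoF, Mphg). Compounds were added 1 h before stimulation and left for 24 h (MyoF 48 h; BT 72 h for soluble read-outs or 6 d for IgG). Biomarkers were read by ELISA, cytotoxicity by SRB, PBMC viability and proliferation by Alamar Blue. Each well value was divided by the mean of 8 DMSO control wells on the same plate and log10 transformed; duplicate blinded samples were tested at 4 concentrations.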

[2] = compound: O=C(CC(=O)C(F)(F)C(F)(F)C(F)(F)F)c1cccs1 [(Perfluorobutyryl)-2-thenoylmethane]
Experimental: as §1

[3] = compound: O=C(Cl)C(F)(F)C(F)(F)C(F)(F)C(=O)Cl [Hexafluoroglutaryl chloride]
Experimental: as §1

[4] = compound: O=C(O)C(F)(F)C(F)(F)C(=O)O [Tetrafluorosuccinic acid]
Experimental: as §1

[5] = compound: O=S(=O)(O)CCC(F)(F)C(F)(F)C(F)(F)C(F)(F)F [4:2 Fluorotelomer sulfonic acid]
Experimental: as §1

[6] = compound: O=S(=O)(OCC(F)(F)F)C(F)(F)C(F)(F)C(F)(F)C(F)(F)F [2,2,2-Trifluoroethyl perfluorobutanesulfonate]
Experimental: as §1

[7] = compound: OC(C(F)(F)F)(C(F)(F)F)C(O)(C(F)(F)F)C(F)(F)F [Perfluoropinacol]
Experimental: as §1

| Test System | level (log10) ([1]; 6700 nM) | level (log10) ([1]; 20000 nM) | level (log10) ([1]; 60000 nM) | level (log10) ([2]; 6700 nM) | level (log10) ([2]; 20000 nM) | level (log10) ([3]; 6700 nM) | level (log10) ([3]; 20000 nM) | level (log10) ([3]; 60000 nM) | level (log10) ([4]; 6700 nM) | level (log10) ([4]; 20000 nM) | level (log10) ([4]; 60000 nM) | level (log10) ([5]; 6700 nM) | level (log10) ([5]; 20000 nM) | level (log10) ([5]; 60000 nM) | level (log10) ([6]; 6700 nM) | level (log10) ([6]; 20000 nM) | level (log10) ([6]; 60000 nM) | level (log10) ([7]; 6700 nM) | level (log10) ([7]; 20000 nM) |
| --- | --- | --- | --- | --- | --- | --- | --- | --- | --- | --- | --- | --- | --- | --- | --- | --- | --- | --- | --- |
| 4H:CCL2/MCP-1 | 0.0125 ± 0.012 | -0.007 ± 0.0099 | 0.0335 ± 0.047 | -0.0825 ± 0.0078 | -0.249 ± 0.0042 | -0.022 ± 0.0042 | -0.015 | -0.015 | -0.037 ± 0.021 | -0.04 ± 0.028 | -0.0055 ± 0.086 | 0.014 ± 0.0014 | -0.0085 ± 0.028 | 0.019 ± 0.0071 | -0.0345 ± 0.015 | -0.046 ± 0.0014 | -0.0385 ± 0.021 | -0.058 ± 0.023 | -0.168 ± 0.025 |
| 4H:CCL26/Eotaxin-3 | 0.005 ± 0.02 | 0.0045 ± 0.0078 | -0.0035 ± 0.022 | -0.041 ± 0.0057 | -0.241 ± 0.016 | 0.016 ± 0.017 | 0.021 ± 0.027 | 0.013 ± 0.016 | 0.0025 ± 0.049 | -0.037 ± 0.064 | 0.0315 ± 0.018 | -0.084 ± 0.042 | -0.004 ± 0.037 | 0.0225 ± 0.037 | 0.0025 ± 0.064 | 0.01 ± 0.054 | -0.0095 ± 0.074 | -0.03 ± 0.048 | -0.179 ± 0.037 |
| 4H:CD62P/P-selectin | -0.002 ± 0.052 | -0.008 ± 0.037 | 0.129 ± 0.021 | -0.0205 ± 0.037 | -0.41 ± 0.032 | -0.012 ± 0.033 | 0.0045 ± 0.026 | -0.0045 ± 0.043 | 0.001 ± 0.017 | -0.011 ± 0.0042 | -0.0005 ± 0.015 | -0.045 ± 0.075 | -0.0285 ± 0.059 | 0.005 ± 0.073 | -0.0365 ± 0.016 | -0.034 ± 0.0085 | -0.0525 ± 0.015 | -0.0165 ± 0.022 | -0.217 ± 0.06 |
| 4H:CD87/uPAR | 0.035 ± 0.03 | 0.012 ± 0.0014 | 0.055 ± 0.048 | -0.006 ± 0.024 | 0.033 ± 0.0071 | 0.0165 ± 0.0035 | 0.0115 ± 0.03 | 0.004 ± 0.018 | -0.0355 ± 0.025 | -0.043 ± 0.035 | -0.036 ± 0.089 | 0.0185 ± 0.0078 | 0.003 ± 0.0085 | -0.031 ± 0.024 | 0.0005 ± 0.011 | 0.001 ± 0.0099 | -0.0095 ± 0.039 | -0.117 ± 0.022 | -0.226 ± 0.029 |
| 4H:CD106/VCAM-1 | 0.012 ± 0.04 | 0.019 ± 0.028 | 0.02 ± 0.025 | -0.009 ± 0.0071 | -0.234 ± 0.04 | 0.0015 ± 0.0092 | -0.005 ± 0.021 | 0.001 ± 0.011 | 0.029 ± 0.033 | 0.0065 ± 0.005 | 0.0485 ± 0.018 | -0.039 ± 0.037 | 0.014 ± 0.0057 | -0.0035 ± 0.023 | -0.004 ± 0.025 | -0.008 ± 0.014 | 0.0015 ± 0.0021 | -0.043 ± 0.018 | -0.22 ± 0.02 |
| 4H:SRB | -0.0025 ± 0.005 | -0.005 ± 0.0042 | -0.001 ± 0.0014 | -0.0255 ± 0.00071 | -0.136 ± 0.0021 | 0 ± 0.0014 | 0.0055 ± 0.015 | 0 ± 0.014 | -0.0005 ± 0.023 | 0.001 ± 0.0085 | -0.0185 ± 0.011 | -0.0035 ± 0.00071 | -0.0055 ± 0.005 | -0.0035 ± 0.0092 | -0.0025 ± 0.00071 | -0.0085 ± 0.011 | -0.0015 ± 0.023 | -0.0345 ± 0.015 | -0.13 ± 0.0078 |
| 4H:VEGFR2 | -0.0065 ± 0.03 | 0.01 | 0.0085 ± 0.0021 | -0.0915 ± 0.0078 | -0.172 ± 0.064 | -0.0325 ± 0.029 | 0.018 ± 0.031 | 0.047 ± 0.035 | -0.032 ± 0.014 | -0.027 | 0.007 ± 0.11 | -0.103 ± 0.042 | -0.0525 ± 0.071 | 0.025 ± 0.075 | -0.0285 ± 0.03 | 0.0005 ± 0.019 | 0.025 ± 0.0014 | -0.02 ± 0.023 | -0.138 ± 0.064 |
